The conditions of series [1]: Crystal.
Series [2] can be described thus: molar enthalpy of vaporization or sublimation. The conditions noted are these: 298.15 K, Crystal.
Where [3] appears, read: stuart scientific smp2 calibrated apparatus.

The results in this text go back to the NIST ThermoML archive (doi:10.1016/j.jct.2008.04.004).

Molecules are shown by their SMILES. ± gives the expanded uncertainty stated by the source.

Take `N#Cc1ccccc1C(=O)O` [2-cyanobenzoic acid]: in series [1] (DTA), the Normal melting temperature came to 232.6 ± 0.5 °C. Besides, the molar enthalpy in series [2] (Vacuum drop calorimetry) stood at 27.4 ± 0.717 kcal/mol.

In the case of `N#Cc1cccc(C(=O)O)c1` [3-cyanobenzoic acid], the Normal melting temperature in series [1] (setting [3]) came out at 223 ± 1 °C. The molar enthalpy in series [2] (Vacuum drop calorimetry) worked out at 27.9 ± 0.717 kcal/mol.

For `N#Cc1ccc(C(=O)O)cc1` [4-cyanobenzoic acid], the Normal melting temperature in series [1] (setting [3]) was 220 ± 1 °C. The molar enthalpy in series [2] (Unpublished results by the authors) is 27 ± 0.478 kcal/mol.
